Test results as given in ChEMBL document CHEMBL1141204, “Carbonic anhydrase activators: X-ray crystal structure of the adduct of human isozyme II with L-histidine as a platform for the design of stronger activators” (Bioorg Med Chem Lett, 2005).

biological target: Carbonic anhydrase 4 (Homo sapiens) (UniProt P22748); assay: Activation constant against recombinant human CA IV isozyme by the esterase method; assay type: functional
Sequence (P22748 whole entry): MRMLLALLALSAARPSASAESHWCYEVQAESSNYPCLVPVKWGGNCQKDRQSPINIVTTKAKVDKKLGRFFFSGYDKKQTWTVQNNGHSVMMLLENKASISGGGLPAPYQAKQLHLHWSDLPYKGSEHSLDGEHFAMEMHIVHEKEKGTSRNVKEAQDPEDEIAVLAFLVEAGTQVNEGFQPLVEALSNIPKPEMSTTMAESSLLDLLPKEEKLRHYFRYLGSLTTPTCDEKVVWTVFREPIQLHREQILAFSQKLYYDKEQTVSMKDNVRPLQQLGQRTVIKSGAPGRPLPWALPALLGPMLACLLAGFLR

KA [µM] | SMILES
23 | COC(=O)[C@@H](N)Cc1c[nH]cn1
33 | N[C@@H](Cc1c[nH]cn1)C(=O)O

Second part, the compound before the results:

SMILES | KA [µM]
N[C@@H](Cc1ccccc1)C(=O)O | 4.6
NCCC(=O)N[C@@H](Cc1c[nH]cn1)C(=O)O | 15
NCCc1c[nH]cn1 | 37
